Tests used:
[1] = Solubility of 25HC3S in aqueous solutions, organic solvents or oils; type: physicochemical; conditions: various aqueous solutions and FDA approved organic solvents or oils
Excerpt: The HPLC technique involved reverse phase HPLC for measuring the concentration of 25HC3 S in the solubility samples.

[2] = Single SC or IM injection PK study in rats; type: in vivo, Sprague Dawley rats
Experimental: The subjects for the study were 15 male Sprague Dawley rats (8-11 weeks of age; 280-327 g at time of dosing). […] All animals were in healthy condition and admitted to the study.
The Vehicle was a solution of 3% (w/v) polyethylene glycol 3350, 0.3% (v/v) polysorbate 80, 0.7% (w/v) sodium chloride, 0.15% (w/v) L-methionine, 10 mM sodium phosphate buffer at pH 7.4 in water. 25HC3S was mixed into the Vehicle solution to result in drug concentrations of 25, 5 and 10 mg/mL. […] The formulated test article was used within 24 hours of constitution.
Each rat received a single IM or SC injection (2 doses) (N=5/group). The dose level for the IM injection was 25 mg/kg was administered in a dose volume of 1 mL/kg. There were two dose groups for the SC injection route. The dose levels for the SC injections were 25 and 50 mg/kg with a dose volume of […] for both groups (drug concentrations were 5 and 10 mg/mL, respectively). Whole blood samples were collected via the jugular vein or the submandibular vein at pre-dose, 0.5, 1, 2, 4, 8, 12, 24, and 32 hours (h) post dose from each rat; however, the last blood collection may have been collected by terminal cardiac puncture with the animals deeply anesthetized by isoflurane. Blood samples were placed into tubes containing K2EDTA. The blood was gently mixed to assure distribution of the anti-coagulant and the resulting plasma samples underwent analyses to quantify 25HC3 S levels. […] Assessments included, but were not limited to, assessment of activity, posture, respiration, emesis, seizure, hydration status, injection site assessment and overall body condition.

C[C@H](CCCC(C)(C)O)[C@H]1CC[C@H]2[C@@H]3CC=C4C[C@@H](OS(=O)(=O)[O-])CC[C@]4(C)[C@H]3CC[C@]12C.[Na+] [Formulation 25HC3S, 5-cholesten-3, 25-diol, 3-sulfate]
solubility [1]: low solubility | mean maximum concentration ([2]; IM 25 mg/kg): 101.9 (±17.1) ng/mL | mean time to maximum plasma drug concentration ([2]; IM 25 mg/kg): 10.4 (±2.2) hr | mean maximum concentration ([2]; SC 25 mg/kg): 127.1 (±93.8) ng/mL | mean time to maximum plasma drug concentration ([2]; SC 25 mg/kg): 7.6 (±4.6) hrs | mean concentration at 32 h ([2]; SC 50 mg/kg): 34.2 (±13.8) ng/mL | mean maximum concentration ([2]; SC 50 mg/kg): 76 (±15.9) ng/mL | mean time to maximum plasma drug concentration ([2]; SC 50 mg/kg): 7.2 (±1.8) hrs | clinical signs ([2]; single IM or SC injection): no observable clinical signs
